# Measurements published in ChEMBL document CHEMBL1671627, “Increasing trends in antimicrobial resistance among clinically important anaerobes and Bacteroides fragilis isolates causing nosocomial infections: emerging resistance to carbapenems” (2008).
# How the values were obtained:
# [1] = system: Fusobacterium nucleatum; experiment: Antibacterial activity against Fusobacterium nucleatum by CLSI agar dilution method; assay type: functional
# [2] = system: Bacteroides caccae; experiment: Antibacterial activity against beta-lactamase producing Bacteroides caccae assessed as resistant isolates by CLSI agar dilution method; assay type: functional
# [3] = system: Bacteroides uniformis; experiment: Antibacterial activity against beta-lactamase producing Bacteroides uniformis assessed as susceptible isolates by CLSI agar dilution method; assay type: functional
# [4] = system: Clostridium tertium; experiment: Antibacterial activity against beta-lactamase producing Clostridium tertium assessed as susceptible isolates by CLSI agar dilution method; assay type: functional
# [5] = system: Clostridium tertium; experiment: Antibacterial activity against beta-lactamase producing Clostridium tertium assessed as resistant isolates by CLSI agar dilution method; assay type: functional
# [6] = system: Clostridium paraputrificum; experiment: Antibacterial activity against beta-lactamase producing Clostridium paraputrificum by CLSI agar dilution method; assay type: functional
# [7] = system: Bacteroides thetaiotaomicron; experiment: Antibacterial activity against beta-lactamase producing Bacteroides thetaiotaomicron assessed as susceptible isolates by CLSI agar dilution method; assay type: functional
# [8] = system: Veillonella parvula; experiment: Antibacterial activity against Veillonella parvula by CLSI agar dilution method; assay type: functional
# [9] = system: Finegoldia magna; experiment: Antibacterial activity against beta-lactamase producing Finegoldia magna by CLSI agar dilution method; assay type: functional
# [10] = system: Parvimonas micra; experiment: Antibacterial activity against beta-lactamase producing Micromonas micros by CLSI agar dilution method; assay type: functional
# [11] = system: Prevotella bivia; experiment: Antibacterial activity against Prevotella bivia assessed as susceptible isolates by CLSI agar dilution method; assay type: functional
# [12] = system: Prevotella intermedia; experiment: Antibacterial activity against Prevotella intermedia assessed as resistant isolates by CLSI agar dilution method; assay type: functional
# [13] = system: Fusobacterium necrophorum; experiment: Antibacterial activity against Fusobacterium necrophorum assessed as resistant isolates by CLSI agar dilution method; assay type: functional
# [14] = system: Clostridium tertium; experiment: Antibacterial activity against beta-lactamase producing Clostridium tertium by CLSI agar dilution method; assay type: functional
# [15] = system: Fusobacterium varium; experiment: Antibacterial activity against Fusobacterium varium by CLSI agar dilution method; assay type: functional
# [16] = system: Phocaeicola vulgatus; experiment: Antibacterial activity against beta-lactamase producing Bacteroides vulgatus assessed as susceptible isolates by CLSI agar dilution method; assay type: functional
# [17] = system: Peptostreptococcus anaerobius; experiment: Antibacterial activity against beta-lactamase producing Peptostreptococcus anaerobius assessed as resistant isolates by CLSI agar dilution method; assay type: functional
# [18] = system: Peptoniphilus asaccharolyticus; experiment: Antibacterial activity against beta-lactamase producing Peptoniphilus asaccharolyticus assessed as susceptible isolates by CLSI agar dilution method; assay type: functional
# [19] = system: Fusobacterium mortiferum; experiment: Antibacterial activity against Fusobacterium mortiferum assessed as susceptible isolates by CLSI agar dilution method; assay type: functional
# [20] = system: Fusobacterium mortiferum; experiment: Antibacterial activity against Fusobacterium mortiferum by CLSI agar dilution method; assay type: functional
# [21] = system: Peptostreptococcus anaerobius; experiment: Antibacterial activity against beta-lactamase producing Peptostreptococcus anaerobius by CLSI agar dilution method; assay type: functional
# [22] = system: Prevotella melaninogenica; experiment: Antibacterial activity against Prevotella melaninogenica assessed as resistant isolates by CLSI agar dilution method; assay type: functional
# [23] = system: Clostridium septicum; experiment: Antibacterial activity against beta-lactamase producing Clostridium septicum assessed as resistant isolates by CLSI agar dilution method; assay type: functional
# [24] = system: Fusobacterium mortiferum; experiment: Antibacterial activity against Fusobacterium mortiferum assessed as resistant isolates by CLSI agar dilution method; assay type: functional
# [25] = system: Prevotella buccae; experiment: Antibacterial activity against Prevotella buccae assessed as susceptible isolates by CLSI agar dilution method; assay type: functional, Segatella buccae
# [26] = system: Prevotella melaninogenica; experiment: Antibacterial activity against Prevotella melaninogenica by CLSI agar dilution method; assay type: functional
# [27] = system: Fusobacterium nucleatum; experiment: Antibacterial activity against Fusobacterium nucleatum assessed as resistant isolates by CLSI agar dilution method; assay type: functional
# [28] = system: Peptoniphilus asaccharolyticus; experiment: Antibacterial activity against beta-lactamase producing Peptoniphilus asaccharolyticus assessed as resistant isolates by CLSI agar dilution method; assay type: functional
# [29] = system: Bacteroides uniformis; experiment: Antibacterial activity against beta-lactamase producing Bacteroides uniformis assessed as resistant isolates by CLSI agar dilution method; assay type: functional
# [30] = system: Bacteroides thetaiotaomicron; experiment: Antibacterial activity against beta-lactamase producing Bacteroides thetaiotaomicron assessed as resistant isolates by CLSI agar dilution method; assay type: functional
# [31] = system: Prevotella bivia; experiment: Antibacterial activity against Prevotella bivia assessed as resistant isolates by CLSI agar dilution method; assay type: functional
# [32] = system: Bacteroides caccae; experiment: Antibacterial activity against beta-lactamase producing Bacteroides caccae by CLSI agar dilution method; assay type: functional
# [33] = system: Peptostreptococcus anaerobius; experiment: Antibacterial activity against beta-lactamase producing Peptostreptococcus anaerobius assessed as susceptible isolates by CLSI agar dilution method; assay type: functional
# [34] = system: Fusobacterium varium; experiment: Antibacterial activity against Fusobacterium varium assessed as susceptible isolates by CLSI agar dilution method; assay type: functional
# [35] = system: Phocaeicola vulgatus; experiment: Antibacterial activity against beta-lactamase producing Bacteroides vulgatus assessed as resistant isolates by CLSI agar dilution method; assay type: functional
# [36] = system: Parvimonas micra; experiment: Antibacterial activity against beta-lactamase producing Micromonas micros assessed as resistant isolates by CLSI agar dilution method; assay type: functional
# [37] = system: Clostridium perfringens; experiment: microbe, parasite or virus in culture; assay type: functional
# [38] = system: Prevotella intermedia; experiment: Antibacterial activity against Prevotella intermedia by CLSI agar dilution method; assay type: functional
# [39] = system: Prevotella bivia; experiment: Antibacterial activity against Prevotella bivia by CLSI agar dilution method; assay type: functional
# [40] = system: Clostridium septicum; experiment: Antibacterial activity against beta-lactamase producing Clostridium septicum assessed as susceptible isolates by CLSI agar dilution method; assay type: functional
# [41] = system: Phocaeicola vulgatus; experiment: Antibacterial activity against beta-lactamase producing Bacteroides vulgatus by CLSI agar dilution method; assay type: functional
# [42] = system: Finegoldia magna; experiment: Antibacterial activity against beta-lactamase producing Finegoldia magna assessed as susceptible isolates by CLSI agar dilution method; assay type: functional
# [43] = system: Bacteroides caccae; experiment: Antibacterial activity against beta-lactamase producing Bacteroides caccae assessed as susceptible isolates by CLSI agar dilution method; assay type: functional
# [44] = system: Bacteroides fragilis; experiment: Antibacterial activity against Bacteroides fragilis by CLSI agar dilution method; assay type: functional
# [45] = system: Bacteroides thetaiotaomicron; experiment: Antibacterial activity against beta-lactamase producing Bacteroides thetaiotaomicron by CLSI agar dilution method; assay type: functional
# [46] = system: Parvimonas micra; experiment: Antibacterial activity against beta-lactamase producing Micromonas micros assessed as susceptible isolates by CLSI agar dilution method; assay type: functional
# [47] = system: Clostridium septicum; experiment: Antibacterial activity against beta-lactamase producing Clostridium septicum by CLSI agar dilution method; assay type: functional
# [48] = system: Fusobacterium varium; experiment: Antibacterial activity against Fusobacterium varium assessed as resistant isolates by CLSI agar dilution method; assay type: functional
# [49] = system: Prevotella buccae; experiment: Antibacterial activity against Prevotella buccae by CLSI agar dilution method; assay type: functional; details: Segatella buccae
# [50] = system: Fusobacterium necrophorum; experiment: Antibacterial activity against Fusobacterium necrophorum by CLSI agar dilution method; assay type: functional
# [51] = system: Bacteroides fragilis; experiment: Antibacterial activity against Bacteroides fragilis assessed as resistant isolates by CLSI agar dilution method; assay type: functional
# [52] = system: Fusobacterium necrophorum; experiment: Antibacterial activity against Fusobacterium necrophorum assessed as susceptible isolates by CLSI agar dilution method; assay type: functional
# [53] = system: Peptoniphilus asaccharolyticus; experiment: Antibacterial activity against beta-lactamase producing Peptoniphilus asaccharolyticus by CLSI agar dilution method; assay type: functional
# [54] = system: Bacteroides fragilis; experiment: Antibacterial activity against Bacteroides fragilis assessed as susceptible isolates by CLSI agar dilution method; assay type: functional
# [55] = system: Finegoldia magna; experiment: Antibacterial activity against beta-lactamase producing Finegoldia magna assessed as resistant isolates by CLSI agar dilution method; assay type: functional
# [56] = system: Clostridium paraputrificum; experiment: Antibacterial activity against beta-lactamase producing Clostridium paraputrificum assessed as resistant isolates by CLSI agar dilution method; assay type: functional
# [57] = system: Prevotella intermedia; experiment: Antibacterial activity against Prevotella intermedia assessed as susceptible isolates by CLSI agar dilution method; assay type: functional
# [58] = system: Clostridium paraputrificum; experiment: Antibacterial activity against beta-lactamase producing Clostridium paraputrificum assessed as susceptible isolates by CLSI agar dilution method; assay type: functional
# [59] = system: Prevotella melaninogenica; experiment: Antibacterial activity against Prevotella melaninogenica assessed as susceptible isolates by CLSI agar dilution method; assay type: functional
# [60] = system: Fusobacterium nucleatum; experiment: Antibacterial activity against Fusobacterium nucleatum assessed as susceptible isolates by CLSI agar dilution method; assay type: functional
# [61] = system: Bacteroides uniformis; experiment: Antibacterial activity against beta-lactamase producing Bacteroides uniformis by CLSI agar dilution method; assay type: functional
# [62] = system: Prevotella buccae; experiment: Antibacterial activity against Prevotella buccae assessed as resistant isolates by CLSI agar dilution method; assay type: functional, Segatella buccae
compound,measurement,setting,value
C[C@@H](O)[C@H]1C(=O)N2C(C(=O)O)=C(S[C@@H]3CN[C@H](CNS(N)(=O)=O)C3)[C@H](C)[C@H]12 [DORIPENEM],MIC50,[1],0.12 µg/mL
same,MIC90,[1],0.25 µg/mL
same,Activity,[2],4%
same,Activity,[3],92%
same,Activity,[4],100%
same,Activity,[5],0%
same,MIC,[6],0.03 µg/mL
same,MIC50,[6],0.03 µg/mL
same,MIC90,[6],2 µg/mL
same,Activity,[7],97%
same,MIC,[8],0.06 µg/mL
same,MIC50,[9],0.06 µg/mL
same,MIC90,[9],0.5 µg/mL
same,MIC50,[10],0.06 µg/mL
same,MIC90,[10],0.5 µg/mL
same,Activity,[11],100%
same,Activity,[12],0%
same,Activity,[13],0%
same,MIC,[14],0.03 µg/mL
same,MIC50,[14],0.03 µg/mL
same,MIC90,[14],2 µg/mL
same,MIC50,[15],0.12 µg/mL
same,MIC90,[15],0.25 µg/mL
same,Activity,[16],92%
same,Activity,[17],0%
same,Activity,[18],100%
same,Activity,[19],100%
same,MIC50,[20],0.12 µg/mL
same,MIC90,[20],0.25 µg/mL
same,MIC50,[21],0.06 µg/mL
same,MIC90,[21],0.5 µg/mL
same,Activity,[22],0%
same,Activity,[23],0%
same,Activity,[24],0%
same,Activity,[25],100%
same,MIC50,[26],0.25 µg/mL
same,MIC90,[26],0.5 µg/mL
same,Activity,[27],0%
same,Activity,[28],0%
same,Activity,[29],4%
same,Activity,[30],0%
same,Activity,[31],0%
same,MIC50,[32],1 µg/mL
same,MIC90,[32],2 µg/mL
same,Activity,[33],100%
same,Activity,[34],100%
same,Activity,[35],4%
same,Activity,[36],0%
same,MIC,[37],0.03 µg/mL
same,MIC50,[37],0.03 µg/mL
same,MIC90,[37],2 µg/mL
same,MIC50,[38],0.25 µg/mL
same,MIC90,[38],0.5 µg/mL
same,MIC50,[39],0.25 µg/mL
same,MIC90,[39],0.5 µg/mL
same,Activity,[40],100%
same,MIC50,[41],1 µg/mL
same,MIC90,[41],2 µg/mL
same,Activity,[42],100%
same,Activity,[43],92%
same,MIC50,[44],0.5 µg/mL
same,MIC90,[44],8 µg/mL
same,MIC,[45],0.5 µg/mL
same,MIC50,[45],0.5 µg/mL
same,MIC90,[45],2 µg/mL
same,Activity,[46],100%
same,MIC,[47],0.03 µg/mL
same,MIC50,[47],0.03 µg/mL
same,MIC90,[47],2 µg/mL
same,Activity,[48],0%
same,MIC50,[49],0.25 µg/mL
same,MIC90,[49],0.5 µg/mL
same,MIC50,[50],0.12 µg/mL
same,MIC90,[50],0.25 µg/mL
same,Activity,[51],7%
same,Activity,[52],100%
same,MIC50,[53],0.06 µg/mL
same,MIC90,[53],0.5 µg/mL
same,Activity,[54],88%
same,Activity,[55],0%
same,Activity,[56],0%
same,Activity,[57],100%
same,Activity,[58],100%
same,Activity,[59],100%
same,Activity,[60],100%
same,MIC50,[61],1 µg/mL
same,MIC90,[61],2 µg/mL
same,Activity,[62],0%
